Measurements reported in patent US20220152188A1, “TLR4-TLR7 LIGAND FORMULATIONS AS VACCINE ADJUVANTS” (The Regents of the University of California, priority 2019, published 2022).
“Also recorded” adds a separate entry of the source.

Experiments:
[1] = tested on: inactivated Influenza A virus [A/California/04/2009 (H1N1) pdm09]; assay: Antigen-specific antibody production in mice immunized with IIAV plus adjuvant (ELISA); assay type: in vivo, BALB/c mice; conditions: for total IgG levels: liposomal formulation
[2] = tested on: influenza virus; assay: Immunization with low dose recombinant hemagglutinin (rHA) and lethal virus challenge; assay type: in vivo, mice; conditions: rHA 0.2 μg/injection
Protocol: To assess profile of protective immune responses against influenza virus infection induced by TLR4/TLR7 agonist-combined adjuvant, mice were immunized with low dose (0.2 μg/injection) recombinant hemagglutinin (rHA) and humoral responses and protection against lethal virus challenge (FIGS. 34A-2D).

[3] = tested on: murine primary cells; assay: In vitro immunoactivity / agonistic potency in murine cells; assay type: cell-based, mouse
[4] = tested on: THP-1 cells and human primary cells; assay: In vitro immunoactivity / agonistic potency in human cells; assay type: cell-based; conditions: THP-1 and human primary cells
[5] = tested on: ovalbumin; assay: In vivo vaccination study with model antigen ovalbumin; conditions: ovalbumin as antigen
[6] = molecular target: TLR4 (Homo sapiens, UniProt O00206+Q9Y6Y9); assay type: cell-based
TLR4, sequence (O00206 24-839): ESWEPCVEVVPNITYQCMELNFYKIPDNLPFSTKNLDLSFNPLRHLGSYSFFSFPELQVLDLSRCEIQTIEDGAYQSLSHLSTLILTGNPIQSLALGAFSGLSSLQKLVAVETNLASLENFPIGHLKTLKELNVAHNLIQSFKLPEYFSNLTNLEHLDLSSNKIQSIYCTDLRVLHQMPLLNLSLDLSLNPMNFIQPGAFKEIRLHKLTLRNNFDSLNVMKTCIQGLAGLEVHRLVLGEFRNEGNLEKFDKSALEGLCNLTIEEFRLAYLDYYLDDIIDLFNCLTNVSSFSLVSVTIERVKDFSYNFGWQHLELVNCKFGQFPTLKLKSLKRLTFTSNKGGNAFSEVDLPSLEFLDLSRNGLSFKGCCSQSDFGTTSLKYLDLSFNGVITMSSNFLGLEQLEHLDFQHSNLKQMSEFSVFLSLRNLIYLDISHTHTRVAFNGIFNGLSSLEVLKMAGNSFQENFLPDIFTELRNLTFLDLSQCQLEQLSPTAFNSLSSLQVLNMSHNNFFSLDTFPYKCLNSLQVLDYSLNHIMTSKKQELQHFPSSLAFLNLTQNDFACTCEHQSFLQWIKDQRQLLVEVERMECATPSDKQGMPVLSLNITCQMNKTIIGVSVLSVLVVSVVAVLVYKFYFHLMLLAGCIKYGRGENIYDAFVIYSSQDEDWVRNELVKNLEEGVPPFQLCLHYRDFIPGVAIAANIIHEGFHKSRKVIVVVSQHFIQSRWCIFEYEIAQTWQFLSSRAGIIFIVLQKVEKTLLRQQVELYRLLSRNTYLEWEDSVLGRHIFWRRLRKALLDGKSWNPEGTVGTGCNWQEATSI
TLR4, sequence (Q9Y6Y9 17-160): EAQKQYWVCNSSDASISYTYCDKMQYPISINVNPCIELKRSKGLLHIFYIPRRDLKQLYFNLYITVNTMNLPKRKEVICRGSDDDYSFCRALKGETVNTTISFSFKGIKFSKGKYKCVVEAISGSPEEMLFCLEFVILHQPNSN

[7] = tested on: IGH genes, TCRα and TCRβ; assay: NGS assay for BCR and TCR repertoire of inguinal lymph nodes; assay type: in vivo, BALB/c mice; conditions: day 28
[8] = molecular target: mouse TLR4 (Mus musculus, UniProt Q9JHF9+Q9QUK6); assay type: cell-based
mouse TLR4, sequence (Q9QUK6 26-835): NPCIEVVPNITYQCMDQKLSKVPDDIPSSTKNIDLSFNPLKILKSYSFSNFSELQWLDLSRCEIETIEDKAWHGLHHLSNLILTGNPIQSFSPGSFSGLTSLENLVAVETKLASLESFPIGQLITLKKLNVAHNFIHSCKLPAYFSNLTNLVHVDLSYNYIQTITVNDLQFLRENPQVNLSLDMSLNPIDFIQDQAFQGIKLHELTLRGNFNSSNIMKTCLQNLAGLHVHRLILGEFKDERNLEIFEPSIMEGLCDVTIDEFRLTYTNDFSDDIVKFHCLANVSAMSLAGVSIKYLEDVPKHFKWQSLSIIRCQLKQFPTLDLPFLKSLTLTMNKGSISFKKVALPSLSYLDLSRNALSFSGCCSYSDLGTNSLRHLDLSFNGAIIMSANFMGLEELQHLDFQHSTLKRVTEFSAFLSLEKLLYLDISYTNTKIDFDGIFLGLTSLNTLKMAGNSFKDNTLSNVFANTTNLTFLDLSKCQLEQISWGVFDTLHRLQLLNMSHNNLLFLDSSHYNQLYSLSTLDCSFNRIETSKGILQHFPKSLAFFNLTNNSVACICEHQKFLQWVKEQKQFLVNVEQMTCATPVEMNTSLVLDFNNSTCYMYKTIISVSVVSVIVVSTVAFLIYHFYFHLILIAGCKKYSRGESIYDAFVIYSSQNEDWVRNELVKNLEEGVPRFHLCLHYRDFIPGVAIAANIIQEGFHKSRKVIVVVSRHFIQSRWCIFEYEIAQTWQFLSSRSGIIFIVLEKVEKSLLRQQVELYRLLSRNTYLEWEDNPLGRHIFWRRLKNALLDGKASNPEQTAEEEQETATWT
mouse TLR4, sequence (Q9JHF9 19-160): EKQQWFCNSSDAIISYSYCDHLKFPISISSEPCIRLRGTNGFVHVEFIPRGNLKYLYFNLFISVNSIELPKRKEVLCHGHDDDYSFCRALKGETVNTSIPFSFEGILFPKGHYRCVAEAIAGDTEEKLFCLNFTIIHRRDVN

[9] = single adjuvant, DMSO formulation, sera day 28
[10] = TLR4 agonist combined with 1V270, DMSO-water formulation, sera day 28
[11] = single adjuvant, DMSO formulation, i.m. days 0 and 21, sera day 28

Row | SMILES | IgG2a:IgG1 ratio (Th1/Th2 immune balance) ([1]; DMSO-water formulation, individual animals) | total IgG levels ([1]; sera day 28) | anti-HA IgG2a [1, 9] | Th1/Th2 bias of immune response [2] | immunoactivity / agonistic potency in murine cells [3] | anti-HA and anti-NA IgG2a [1, 10] | anti-HA and anti-NA IgG1 [1, 11] | immunoactivity / agonistic potency in human cells [4] | serum IgG1 levels [5] | antigen-specific IgG2a ([5]; with 1V270) | EC50 in human TLR4 reporter cells in comparison with EC50 of 1Z105 [6] | anti-HA and anti-NA IgG1 [1, 10] | anti-HA and anti-NA IgG1 ([1]; single adjuvant, DMSO formulation, i.m. days 0 and 21, sera day 28, listed as 2B182c) | anti-NA IgG2a [1, 9] | antigen specific IgM [1, 9] | anti-NA IgG2a ([1]; single adjuvant, DMSO formulation, sera day 28, listed as 2B182c) | TCR clonality (TCRα and TCRβ) [7] | EC50 in murine TLR4 reporter cells in comparison with EC50 of 1Z105 [8]
1 | CCCCCCCCC=CCCCCCCCC(=O)OCC(COP(=O)(O)OCCNC(=O)c1ccc(Cn2c(=O)[nH]c3c(N)nc(OCCOC)nc32)cc1)OC(=O)CCCCCCCC=CCCCCCCCC (centres unmarked) [Compound 1V270] | significantly shifted the Th2-biased immune responses by 1Z105 or 2B182C | comparable | significantly increased anti-HA; also recorded: induced only anti-HA IgG2a production | induced Th1 biased immune responses | – | – | – | – | – | – | – | – | – | – | – | – | – | –
2 | Cn1c2ccccc2c2nc(SCC(=O)NC3CCCCC3)n(-c3ccccc3)c(=O)c21 [Compound 1Z105] | – | – | – | – | good immunoactivity in murine cells | failed in most cases; also recorded: failed to enhance IgG2a production induced by 1V270 | significantly higher levels of IgG1 against HA and NA | devoid of significant activity in human cells | – | – | – | – | – | – | – | – | – | –
3 | Cn1c2ccc(-c3ccco3)cc2c2nc(SCC(=O)NC3CCCCC3)n(-c3ccccc3)c(=O)c21 [Compound 2B182C] | – | comparable | – | – | higher agonistic potency than 1Z105 | increased the levels of anti HA- and anti NA-Abs | significantly higher levels of IgG1 against HA and NA; also recorded: significantly increased IgG1 antibody against both HA and NA | higher agonistic potency than 1Z105 | induced higher serum IgG1 levels | additively enhance the release of antigen-specific IgG2a induced by 1V270 | 870 fold | significantly higher IgG1 compared to 1Z105 | higher level of antigen specific IgG1 | enhanced anti-NA Abs; also recorded: enhanced anti-NA specific IgG2a | only slightly increased | higher level of antigen specific IgG1 and anti-NA IgG2a | increased | 5.8 fold
